Values quoted from earlier work as cited in publication PMC9826446 (Journal of Bone and Mineral Research, 2022).

Key:
ectopic calcification = details: animal models of PXE; ref [1], [7], [19]
vascular calcification = details: patients with PXE, phase 2 trial; ref [27]
TNAP = details: not TNAP‐specific; ref [15], [16]

| Compound | inhibition on TNAP (TNAP) | other results |
| --- | --- | --- |
| COc1ccc(Cl)cc1S(=O)(=O)Nc1cncc(C(N)=O)c1 [SBI‐425, 5‐((5‐chloro‐2‐methoxyphenyl)sulfonamido)nicotinamide] | – | anticalcification effects (ectopic calcification): significant anticalcification effects |
| CC(O)(P(=O)(O)O)P(=O)(O)O [etidronate] | – | vascular calcification (vascular calcification): may reduce vascular calcification |
| c1ccc([C@H]2CN3CCSC3=N2)cc1 [levamisole] | only weak inhibition | – |
| Cn1c(=O)c2[nH]cnc2n(C)c1=O [theophylline] | only weak inhibition | – |
